Measurements published in US8846698B2, “Pyrrolo[2,3-d]pyrimidine tropomysin-related kinase inhibitors” (Pfizer Limited, priority 2011, dated 2014).

Target: TRKA (Homo sapiens (Human), UniProt P04629)
Test: Isolated TRK enzyme assay (HTRF KinEASE-TK), TRKA
Type: biochemical
Conditions: read-out: Trka enzyme (IC50)

TRKA, sequence (P04629 441-796): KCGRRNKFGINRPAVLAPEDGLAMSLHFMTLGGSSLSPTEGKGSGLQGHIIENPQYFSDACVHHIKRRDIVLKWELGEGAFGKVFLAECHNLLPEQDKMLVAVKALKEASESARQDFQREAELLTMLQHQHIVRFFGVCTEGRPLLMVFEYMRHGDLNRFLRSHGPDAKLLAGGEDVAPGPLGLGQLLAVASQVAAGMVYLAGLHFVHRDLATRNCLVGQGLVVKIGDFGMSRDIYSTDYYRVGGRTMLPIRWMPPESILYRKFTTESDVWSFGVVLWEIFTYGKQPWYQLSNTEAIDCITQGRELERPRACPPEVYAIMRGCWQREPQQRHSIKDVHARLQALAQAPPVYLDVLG

Compound	IC50 [nM]
CC(C)n1cc(C(=O)c2cncc(NC(=O)c3cnc4cc[nH]c4c3)c2)c2cncnc21 [Example 505, 1H-Pyrrolo[3,2-b]pyridine-6-carboxylic acid [5-(7-isopropyl-7H-pyrrolo[2,3-d]pyrimidine-5-carbonyl)-pyridin-3-yl]-amide]	1630
CC(C)n1cc(C(=O)c2cncc(NC(=O)c3ccc4cnnc-4[nH]3)c2)c2cncnc21 [Example 506, Pyrazolo[3,4-b]pyridine-6-carboxylic acid [5-(7-isopropyl-7H-pyrrolo[2,3-d]pyrimidine-5-carbonyl)-pyridin-3-yl]-amide]	67
CC(C)n1cc(C(=O)c2cncc(NC(=O)c3[nH]nc4ccccc34)c2)c2cncnc21 [Example 507, 2H-Indazole-3-carboxylic acid [5-(7-isopropyl-7H-pyrrolo[2,3-d]pyrimidine-5-carbonyl)-pyridin-3-yl]-amide]	5.45
Cc1noc2ncc(C(=O)Nc3cncc(C(=O)c4cn(C(C)C)c5ncncc45)c3)cc12 [Example 508, 3-Methyl-isoxazolo[5,4-b]pyridine-5-carboxylic acid [5-(7-isopropyl-7H-pyrrolo[2,3-d]pyrimidine-5-carbonyl)-pyridin-3-yl]-amide]	1630
CC(C)n1cc(C(=O)c2cncc(NC(=O)c3ccnnc3)c2)c2cncnc21 [Example 509, Pyridazine-4-carboxylic acid [5-(7-isopropyl-7H-pyrrolo[2,3-d]pyrimidine-5-carbonyl)-pyridin-3-yl]-amide]	9800
CC(C)n1cc(C(=O)c2cncc(NC(=O)c3cc4c(cn3)OCCO4)c2)c2cncnc21 [Example 510, 2,3-Dihydro-1,4-dioxino[2,3-c]pyridine-7-carboxylic acid [5-(7-isopropyl-7H-pyrrolo[2,3-d]pyrimidine-5-carbonyl)-pyridin-3-yl]-amide]	249
CC(C)n1cc(C(=O)c2cncc(NC(=O)c3n[nH]c4ncccc34)c2)c2cncnc21 [Example 511, 1H-Pyrazolo[3,4-b]pyridine-3-carboxylic acid [5-(7-isopropyl-7H-pyrrolo[2,3-d]pyrimidine-5-carbonyl)-pyridin-3-yl]-amide]	144
CC(C)n1cc(C(=O)c2cncc(NC(=O)c3n[nH]c4ccc(F)cc34)c2)c2cncnc21 [Example 512, 5-Fluoro-1H-indazole-3-carboxylic acid [5-(7-isopropyl-7H-pyrrolo[2,3-d]pyrimidine-5-carbonyl)-pyridin-3-yl]-amide]	12.6
Cc1cc(C(=O)Nc2cncc(C(=O)c3cn(C(C)C)c4ncncc34)c2)n(C)n1 [Example 513, 2,5-Dimethyl-2H-pyrazole-3-carboxylic acid [5-(7-isopropyl-7H-pyrrolo[2,3-d]pyrimidine-5-carbonyl)-pyridin-3-yl]-amide]	1890
CC(C)n1cc(C(=O)c2cncc(NC(=O)c3ccnc4ncsc34)c2)c2cncnc21 [Example 514, Thiazolo[4,5-b]pyridine-7-carboxylic acid [5-(7-isopropyl-7H-pyrrolo[2,3-d]pyrimidine-5-carbonyl)-pyridin-3-yl]-amide]	9800
CC(C)n1cc(C(=O)c2cncc(NC(=O)c3cn4nc(Cl)ccc4n3)c2)c2cncnc21 [Example 515, 6-Chloro-imidazo[1,2-b]pyridazine-2-carboxylic acid [5-(7-isopropyl-7H-pyrrolo[2,3-d]pyrimidine-5-carbonyl)-pyridin-3-yl]-amide]	1140
CC(C)n1cc(C(=O)c2cncc(NC(=O)CN3CCc4cccnc4C3)c2)c2cncnc21 [Example 517, 2-(5,8-Dihydro-6H-[1,7]naphthyridin-7-yl)-N-[5-(7-isopropyl-7H-pyrrolo[2,3-d]pyrimidine-5-carbonyl)-pyridin-3-yl]-acetamide]	4390
CC(C)n1cc(C(=O)c2cncc(NC(=O)C(O)c3ccccc3)c2)c2cncnc21 (centres unmarked) [Example 518, 2-Hydroxy-N-[5-(7-isopropyl-7H-pyrrolo[2,3-d]pyrimidine-5-carbonyl)-pyridin-3-yl]-2-phenyl-acetamide]	7.3

The next lines start with the values.

IC50 [nM]	Compound
47.9	CCOc1ncc(C(=O)c2cn(C(C)C)c3ncncc23)cc1NC(=O)Cn1nc(C(F)(F)F)cc1C [Example 519, N-[2-Ethoxy-5-(7-isopropyl-7H-pyrrolo[2,3-d]pyrimidine-5-carbonyl)-pyridin-3-yl]-2-(5-methyl-3-trifluoromethyl-pyrazol-1-yl)-acetamide]
4.57	CC(C)(C)n1cc(C(=O)c2cncc(NC(=O)Cc3ccc(C#N)cc3)c2)c2cnc(N)nc21 [Example 520, N-[5-(2-Amino-7-tert-butyl-7H-pyrrolo[2,3-d]pyrimidine-5-carbonyl)-pyridin-3-yl]-2-(4-cyano-phenyl)-acetamide]
92.7	CC(C)n1cc(C(=O)c2cncc(NC(=O)C(CO)c3ccc(Cl)cc3)c2)c2cncnc21 (centres unmarked) [Example 521, 2-(4-Chloro-phenyl)-3-hydroxy-N-[5-(7-isopropyl-7H-pyrrolo[2,3-d]pyrimidine-5-carbonyl)-pyridin-3-yl]-propionamide]
43.7	N#Cc1ccc(CC(=O)Nc2cncc(C(=O)c3cn(C4(CO)CC4)c4ncncc34)c2)cc1 [Example 522, 2-(4-Cyano-phenyl)-N-{5-[7-(1-hydroxymethyl-cyclopropyl)-7H-pyrrolo[2,3-d]pyrimidine-5-carbonyl]-pyridin-3-yl}-acetamide]
11.4	O=C(Cc1ccc(Cl)cn1)Nc1cncc(C(=O)c2cn(C3(CO)CC3)c3ncncc23)c1 [Example 523, 2-(5-Chloro-pyridin-2-yl)-N-{5-[7-(1-hydroxymethyl-cyclopropyl)-7H-pyrrolo[2,3-d]pyrimidine-5-carbonyl]-pyridin-3-yl}-acetamide]
4.53	O=C(Cc1ccc(C(F)(F)F)cc1)Nc1cncc(C(=O)c2cn(C3(CO)CC3)c3ncncc23)c1 [Example 524, N-{5-[7-(1-Hydroxymethyl-cyclopropyl)-7H-pyrrolo[2,3-d]pyrimidine-5-carbonyl]-pyridin-3-yl}-2-(4-trifluoromethyl-phenyl)-acetamide]
9.48	O=C(Cn1ccc(C(F)(F)F)n1)Nc1cncc(C(=O)c2cn(C3(CO)CC3)c3ncncc23)c1 [Example 525, N-{5-[7-(1-Hydroxymethyl-cyclopropyl)-7H-pyrrolo[2,3-d]pyrimidine-5-carbonyl]-pyridin-3-yl}-2-(3-trifluoromethyl-pyrazol-1-yl)-acetamide]
1.51	CC(C)n1cc(C(=O)c2cncc(NC(=O)Nc3cc(C4CC4)nn3-c3cnn(C)c3)c2)c2cncnc21 [Example 526, 1-(3-Cyclopropyl-1′-methyl-1′H-[1,4′]bipyrazolyl-5-yl)-3-[5-(7-isopropyl-7H-pyrrolo[2,3-d]pyrimidine-5-carbonyl)-pyridin-3-yl]-urea]
4.64	CC(C)n1cc(C(=O)c2cncc(NC(=O)Nc3cc(C(C)(C)C)nn3-c3cnn(C)c3)c2)c2cncnc21 [Example 527, 1-(3-tert-Butyl-1′-methyl-1′H-[1,4′]bipyrazolyl-5-yl)-3-[5-(7-isopropyl-7H-pyrrolo[2,3-d]pyrimidine-5-carbonyl)-pyridin-3-yl]-urea]
2.25	CC(C)(C)n1cc(C(=O)c2cncc(NC(=O)Cc3nc4ccccc4[nH]3)c2)c2cnc(N)nc21 [Example 528, N-[5-(2-Amino-7-tert-butyl-7H-pyrrolo[2,3-d]pyrimidine-5-carbonyl)-pyridin-3-yl]-2-(1H-benzoimidazol-2-yl)-acetamide]
3.93	CC(C)(C)n1cc(C(=O)c2cncc(NC(=O)Cc3ccc(Br)cn3)c2)c2cnc(N)nc21 [Example 529, N-[5-(2-Amino-7-tert-butyl-7H-pyrrolo[2,3-d]pyrimidine-5-carbonyl)-pyridin-3-yl]-2-(5-bromo-pyridin-2-yl)-acetamide]
5.9	CC(C)(C)n1cc(C(=O)c2cncc(NC(=O)Cc3ccc(C#N)cn3)c2)c2cnc(N)nc21 [Example 530, N-[5-(2-Amino-7-tert-butyl-7H-pyrrolo[2,3-d]pyrimidine-5-carbonyl)-pyridin-3-yl]-2-(5-cyano-pyridin-2-yl)-acetamide]
52.4	C[C@@H](CO)n1cc(C(=O)c2cncc(NC(=O)Cc3ccc(OC(F)F)cc3)c2)c2cncnc21 [Example 531, 2-(4-Difluoromethoxy-phenyl)-N-{5-[7-((S)-2-hydroxy-1-methyl-ethyl)-7H-pyrrolo[2,3-d]pyrimidine-5-carbonyl]-pyridin-3-yl}-acetamide]
11.1	C[C@@H](CO)n1cc(C(=O)c2cncc(NC(=O)Cn3cc4ccccc4n3)c2)c2cncnc21 [Example 532, N-{5-[7-((S)-2-Hydroxy-1-methyl-ethyl)-7H-pyrrolo[2,3-d]pyrimidine-5-carbonyl]-pyridin-3-yl}-2-indazol-2-yl-acetamide]
31.3	C[C@@H](CO)n1cc(C(=O)c2cncc(NC(=O)Cc3nc4ccccc4[nH]3)c2)c2cncnc21 [Example 533, 2-(1H-Benzoimidazol-2-yl)-N-{5-[7-((S)-2-hydroxy-1-methyl-ethyl)-7H-pyrrolo[2,3-d]pyrimidine-5-carbonyl]-pyridin-3-yl}-acetamide]
20.3	C[C@@H](CO)n1cc(C(=O)c2cncc(NC(=O)Cc3ccc(OC(F)(F)F)cc3)c2)c2cncnc21 [Example 534, N-{5-[7-((S)-2-Hydroxy-1-methyl-ethyl)-7H-pyrrolo[2,3-d]pyrimidine-5-carbonyl]-pyridin-3-yl}-2-(4-trifluoromethoxy-phenyl)-acetamide]
51.2	C[C@@H](CO)n1cc(C(=O)c2cncc(NC(=O)Cc3ccc(F)c(F)c3)c2)c2cncnc21 [Example 535, 2-(3,4-Difluoro-phenyl)-N-{5-[7-((S)-2-hydroxy-1-methyl-ethyl)-7H-pyrrolo[2,3-d]pyrimidine-5-carbonyl]-pyridin-3-yl}-acetamide]
1.57	COCC(C)(C)n1cc(C(=O)c2cncc(NC(=O)Cc3ccc(Cl)cn3)c2)c2cncnc21 [Example 536, 2-(5-Chloro-pyridin-2-yl)-N-{5-[7-(2-methoxy-1,1-dimethyl-ethyl)-7H-pyrrolo[2,3-d]pyrimidine-5-carbonyl]-pyridin-3-yl}-acetamide]
10.6	COCC(C)(C)n1cc(C(=O)c2cncc(NC(=O)Cc3ccc(F)cn3)c2)c2cncnc21 [Example 537, 2-(5-Fluoro-pyridin-2-yl)-N-{5-[7-(2-methoxy-1,1-dimethyl-ethyl)-7H-pyrrolo[2,3-d]pyrimidine-5-carbonyl]-pyridin-3-yl}-acetamide]
